Earlier results on three compounds are cited in patent publication US12384832B2 (priority 2019, dated 2025).

Like-named read-outs stand apart in the source and are kept apart here.

The target in the data set is TEM-1 (Escherichia coli, UniProt P62593). The note with it: read-out: KM TEM-1, cited from earlier work.
Chain of TEM-1 (P62593 24-286 limits assumed): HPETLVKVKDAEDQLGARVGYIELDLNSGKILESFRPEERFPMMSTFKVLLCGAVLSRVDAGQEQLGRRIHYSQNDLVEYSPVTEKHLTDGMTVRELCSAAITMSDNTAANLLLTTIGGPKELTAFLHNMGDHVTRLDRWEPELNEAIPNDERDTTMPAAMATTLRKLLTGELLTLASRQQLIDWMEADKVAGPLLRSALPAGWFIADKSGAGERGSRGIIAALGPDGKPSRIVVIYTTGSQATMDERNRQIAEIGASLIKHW

The Km is the concentration of substrate that gives half-maximal velocity. For the compound `CC1(C)S[C@@H]2[C@H](NC(=O)Cc3ccccc3)C(=O)N2[C@H]1C(=O)O` [benzylpenicillin], for the setting “substrate hydrolysis”, the Km was 26 µM. Take `O=C(Cc1cccs1)N[C@@H]1C(=O)N2C(C(=O)[O-])=C(C[n+]3ccccc3)CS[C@H]12` [cefaloridine]: the Km is 244 µM. On to `CC1(C)S[C@@H]2[C@H](NC(=O)[C@H](N)c3ccccc3)C(=O)N2[C@H]1C(=O)O` [ampicillin], for which the Km (substrate hydrolysis) was 40 µM.
